Measured values from PubChem BioAssay AID248 (DTP/NCI, 2004).
Toxic doses and inconclusive results are not listed. Rule as the data show it: active = T/C of 150% or more; inactive = T/C below 125%.

System: L1210 leukemia ip in BDF1 mice, survival T/C
Test: NCI In Vivo Anticancer Drug Screen. Data for tumor model L1210 Leukemia (intraperitoneal) in B6D2F1 (BDF1) mice
Details: endpoint: mean survival time, higher = longer survival
Summary of the method: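 In this screen, tumor-bearing mice given compound are compared to those given vehicle, and their survival values are reported as a treated-to-control quotient.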

[1] = dose: 12.5 mg/kg/injection, schedule: Q04DX003 (ip), vehicle: saline
[2] = dose: 25.0 mg/kg/injection, schedule: Q04DX003 (ip), vehicle: saline
[3] = dose: 100.0 mg/kg/injection, schedule: Q01DX009 (ip), vehicle: saline with Tween-80
[4] = dose: 200.0 mg/kg/injection, schedule: Q01DX009 (ip), vehicle: saline with Tween-80
[5] = dose: 100.0 mg/kg/injection, schedule: Q01DX001 (ip), vehicle: saline
[6] = dose: 100.0 mg/kg/injection, schedule: Q01DX009 (ip), vehicle: Klucel (hydroxypropylcellulose) (HPC)
[7] = dose: 100.0 mg/kg/injection, schedule: Q04DX003 (ip), vehicle: Klucel (hydroxypropylcellulose) (HPC)
[8] = dose: 200.0 mg/kg/injection, schedule: Q01DX001 (ip), vehicle: saline
[9] = dose: 200.0 mg/kg/injection, schedule: Q01DX009 (ip), vehicle: Klucel (hydroxypropylcellulose) (HPC)
[10] = dose: 200.0 mg/kg/injection, schedule: Q04DX003 (ip), vehicle: Klucel (hydroxypropylcellulose) (HPC)
[11] = dose: 400.0 mg/kg/injection, schedule: Q01DX001 (ip), vehicle: saline
[12] = dose: 100.0 mg/kg/injection, schedule: Q04DX003 (ip), vehicle: saline with Tween-80
[13] = dose: 50.0 mg/kg/injection, schedule: Q01DX009 (ip), vehicle: saline

Measured: T/C

CS(=O)(=O)c1ccc2nnnn2n1
inactive: dose: 6.25 mg/kg/injection, schedule: Q04DX003 (ip), vehicle: saline 100 % of control | [1] 103 % of control | [2] 100 % of control

CC(C)C/C=C/C1CCCCC1 (tested in a mixture with another compound)
inactive: dose: 50.0 mg/kg/injection, schedule: Q01DX009 (ip), vehicle: saline with Tween-80 101 % of control | [3] 93 % of control | [4] 97 % of control

CC1(C)CC(=O)CC(=C2C(=O)NC(=O)NC2=O)C1
inactive: dose: 100.0 mg/kg/injection, schedule: Q01DX001 (ip), vehicle: carboxymethylcellulose (CMC) 89 % of control | dose: 100.0 mg/kg/injection, schedule: Q01DX002 (ip), vehicle: saline with Tween-80 92 % of control | dose: 100.0 mg/kg/injection, schedule: Q04DX002 (ip), vehicle: saline with Tween-80 103 % of control | dose: 200.0 mg/kg/injection, schedule: Q01DX001 (ip), vehicle: carboxymethylcellulose (CMC) 92 % of control | dose: 200.0 mg/kg/injection, schedule: Q01DX002 (ip), vehicle: saline with Tween-80 98 % of control | dose: 200.0 mg/kg/injection, schedule: Q04DX002 (ip), vehicle: saline with Tween-80 111 % of control | dose: 400.0 mg/kg/injection, schedule: Q01DX001 (ip), vehicle: carboxymethylcellulose (CMC) 87 % of control | dose: 400.0 mg/kg/injection, schedule: Q01DX002 (ip), vehicle: saline with Tween-80 95 % of control | dose: 400.0 mg/kg/injection, schedule: Q04DX002 (ip), vehicle: saline with Tween-80 100 % of control

C=C1C(=O)OC2/C=C(/C)C(OC(C)=O)CC(O)/C(C)=C\C(OC(=O)/C(C)=C\C)C12 (stereo not given)
inactive: dose: 40.0 mg/kg/injection, schedule: Q01DX009 (ip), vehicle: carboxymethylcellulose (CMC) 101 % of control | dose: 60.0 mg/kg/injection, schedule: Q01DX009 (ip), vehicle: carboxymethylcellulose (CMC) 104 % of control | dose: 80.0 mg/kg/injection, schedule: Q01DX009 (ip), vehicle: carboxymethylcellulose (CMC) 104 % of control | dose: 100.0 mg/kg/injection, schedule: Q01DX009 (ip), vehicle: carboxymethylcellulose (CMC) 98 % of control

O=C1c2ccccc2-c2cc3ccccc3cc21
inactive: [5] 100 % of control | [6] 92 % of control | [7] 108 % of control | [8] 101 % of control | [9] 92 % of control | [10] 108 % of control | [11] 103 % of control | dose: 400.0 mg/kg/injection, schedule: Q01DX009 (ip), vehicle: Klucel (hydroxypropylcellulose) (HPC) 90 % of control | dose: 400.0 mg/kg/injection, schedule: Q04DX003 (ip), vehicle: Klucel (hydroxypropylcellulose) (HPC) 110 % of control

c1ccc(CNCc2ccccc2)cc1
inactive: dose: 50.0 mg/kg/injection, schedule: Q01DX009 (ip), vehicle: Klucel (hydroxypropylcellulose) (HPC) 93 % of control | [6] 93 % of control | [7] 95 % of control | [9] 100 % of control | [10] 95 % of control

COC1=C(N)C(=O)C(OC)=C(N)C1=O
inactive: [5] 94 % of control | [8] 97 % of control

CC(C)C(CN)(CCCN1CCCC1)c1cccc2ccccc12 (stereo not given)
inactive: [12] 102 % of control

O=[N+]([O-])c1cc(S(=O)(=O)F)cc(Cl)c1S
inactive: [7] 98 % of control | [10] 102 % of control

Oc1ccccc1C=NCC[N-]CCN=Cc1ccccc1O.[Cu+]
inactive: dose: 1.56 mg/kg/injection, schedule: Q01DX009 (ip), vehicle: Klucel (hydroxypropylcellulose) (HPC) 91 % of control | dose: 1.56 mg/kg/injection, schedule: Q04DX003 (ip), vehicle: Klucel (hydroxypropylcellulose) (HPC) 95 % of control | dose: 3.13 mg/kg/injection, schedule: Q01DX009 (ip), vehicle: Klucel (hydroxypropylcellulose) (HPC) 94 % of control | dose: 3.13 mg/kg/injection, schedule: Q04DX003 (ip), vehicle: Klucel (hydroxypropylcellulose) (HPC) 93 % of control | dose: 6.25 mg/kg/injection, schedule: Q01DX009 (ip), vehicle: Klucel (hydroxypropylcellulose) (HPC) 94 % of control | dose: 6.25 mg/kg/injection, schedule: Q04DX003 (ip), vehicle: Klucel (hydroxypropylcellulose) (HPC) 97 % of control

C=CCNC(=S)Nc1ncn[nH]1
inactive: dose: 75.0 mg/kg/injection, schedule: Q01DX001 (ip), vehicle: carboxymethylcellulose (CMC) 103 % of control | dose: 150.0 mg/kg/injection, schedule: Q01DX001 (ip), vehicle: carboxymethylcellulose (CMC) 104 % of control | dose: 300.0 mg/kg/injection, schedule: Q01DX001 (ip), vehicle: carboxymethylcellulose (CMC) 90 % of control

CCN(CC)C(C)COC(=O)c1cc(=O)n(C)c2ccccc12 (stereo not given)
inactive: [13] 101 % of control | dose: 100.0 mg/kg/injection, schedule: Q01DX009 (ip), vehicle: saline 98 % of control | dose: 100.0 mg/kg/injection, schedule: Q04DX003 (ip), vehicle: saline 95 % of control | dose: 200.0 mg/kg/injection, schedule: Q01DX009 (ip), vehicle: saline 89 % of control | dose: 200.0 mg/kg/injection, schedule: Q04DX003 (ip), vehicle: saline 97 % of control

C[n+]1cc2ccccc2c2ccccc21
inactive: dose: 6.25 mg/kg/injection, schedule: Q01DX009 (ip), vehicle: water 104 % of control | dose: 12.5 mg/kg/injection, schedule: Q01DX009 (ip), vehicle: saline 92 % of control | dose: 12.5 mg/kg/injection, schedule: Q01DX009 (ip), vehicle: water 120 % of control | [1] 101 % of control | dose: 12.5 mg/kg/injection, schedule: Q04DX003 (ip), vehicle: water 98 % of control | dose: 25.0 mg/kg/injection, schedule: Q01DX009 (ip), vehicle: saline 112 % of control | dose: 25.0 mg/kg/injection, schedule: Q01DX009 (ip), vehicle: water 115 % of control | [2] 107 % of control | dose: 25.0 mg/kg/injection, schedule: Q04DX003 (ip), vehicle: water 107 % of control | [13] 95 % of control | dose: 50.0 mg/kg/injection, schedule: Q01DX009 (ip), vehicle: water 93 % of control | dose: 50.0 mg/kg/injection, schedule: Q04DX003 (ip), vehicle: saline 107 % of control

Cc1c(C[N+](C)(C)C)c(=O)n(-c2ccccc2)n1C
inactive: [5] 104 % of control | [8] 98 % of control | [11] 98 % of control

CCCCCCCCCCCCOc1ccc(C(C)(C)C)cc1
inactive: dose: 100.0 mg/kg/injection, schedule: Q01DX007 (ip), vehicle: saline with Tween-80 97 % of control | [12] 100 % of control | dose: 200.0 mg/kg/injection, schedule: Q01DX007 (ip), vehicle: saline with Tween-80 96 % of control | dose: 200.0 mg/kg/injection, schedule: Q04DX003 (ip), vehicle: saline with Tween-80 95 % of control | dose: 400.0 mg/kg/injection, schedule: Q01DX007 (ip), vehicle: saline with Tween-80 97 % of control | dose: 400.0 mg/kg/injection, schedule: Q04DX003 (ip), vehicle: saline with Tween-80 101 % of control

O=[N+]([O-])c1ccc(Cl)cc1/C=N/N1CCN(/N=C/c2cc(Cl)ccc2[N+](=O)[O-])CC1
inactive: [5] 93 % of control | [8] 93 % of control | [11] 93 % of control

O=C(Nc1cccc(Cl)c1)Nc1cccc(Br)c1
inactive: dose: 100.0 mg/kg/injection, schedule: Q04DX002 (ip), vehicle: Klucel (hydroxypropylcellulose) (HPC) 96 % of control | dose: 200.0 mg/kg/injection, schedule: Q04DX002 (ip), vehicle: Klucel (hydroxypropylcellulose) (HPC) 88 % of control | dose: 400.0 mg/kg/injection, schedule: Q04DX002 (ip), vehicle: Klucel (hydroxypropylcellulose) (HPC) 118 % of control

Nc1ncnc2c1ccn2C1CCC(CO)C1 (stereo not given)
inactive: dose: 50.0 mg/kg/injection, schedule: Q01DX001 (ip), vehicle: other 108 % of control | dose: 100.0 mg/kg/injection, schedule: Q01DX001 (ip), vehicle: other 103 % of control | dose: 200.0 mg/kg/injection, schedule: Q01DX001 (ip), vehicle: other 101 % of control

CC(NC(=O)OCc1ccccc1)C(=O)Nc1ccc(C(=O)O)c(O)c1 (stereo not given)
inactive: [3] 90 % of control | [4] 88 % of control | dose: 400.0 mg/kg/injection, schedule: Q01DX009 (ip), vehicle: saline with Tween-80 98 % of control
